For this test, the system named is apyrase. Nature of the test: Screen for apyrase inhibitors (Method 1, in vitro phosphate-release absorbance assay). The conditions noted are these: inhibitor conc at 1 mM stock, 1 hr room temperature, absorbance 630 nm; rounded average of two assay results. In kind it is biochemical. In short, it runs like this:
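Phosphate-release colorimetric assay (Windsor method) in 60 mM Hepes, 3 mM MgCl2, 3 mM CaCl2, 3 mM ATP, pH 6.5, with compound or DMSO control added. Released phosphate developed with ammonium molybdate and ascorbic acid/TCA, then stopped with citrate/acetic acid.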
Regarding `Cc1ccc(NC(=O)c2cccc(S(=O)(=O)Nc3ccc4c(c3)OCO4)c2)cc1` [I-245, 3-(N-(benzo[d][1,3]dioxol-5-yl)sulfamoyl)-N-(p-tolyl)benzamide], the “% Inhibition of Apyrase” value turned out to be 67%. As for `O=C(Nc1ccc2c(c1)OCO2)c1ccc(NS(=O)(=O)c2ccc3c(c2)OCCO3)cc1` [I-921, N-(benzo[d][1,3]dioxol-5-yl)-4-((2,3-dihydrobenzo[b][1,4]dioxine)-6-sulfonamido)benzamide], the “% Inhibition of Apyrase” value turned out to be 57%.

Take `O=C(Nc1cccc([N+](=O)[O-])c1)c1cccc(S(=O)(=O)NCc2ccccc2)c1` [I-50, 3-(N-benzylsulfamoyl)-N-(3-nitrophenyl)benzamide]: the “% Inhibition of Apyrase” value came to 10%. Next, `COc1ccc(NS(=O)(=O)c2cccc(C(=O)Nc3ccc(Br)cc3)c2)cc1` [I-278, N-(4-bromophenyl)-3-(N-(4-methoxyphenyl)sulfamoyl)benzamide]: 43%; `Cc1cccc(NC(=O)c2cccc(NS(=O)(=O)c3ccc(Cl)cc3)c2)c1` [I-7, 3-((4-chlorophenyl)sulfonamido)-N-(m-tolyl)benzamide]: 67%; `COc1ccc(NC(=O)c2ccc(Cl)c(S(=O)(=O)N3CCc4ccccc43)c2)cc1OC` [I-588, 4-chloro-N-(3,4-dimethoxyphenyl)-3-(indolin-1-ylsulfonyl)benzamide]: 43%. Next, `COc1ccc(NC(=O)c2cccc(S(=O)(=O)Nc3ccc4c(c3)OCO4)c2)cc1` [I-276, 3-(N-(benzo[d][1,3]dioxol-5-yl)sulfamoyl)-N-(4-methoxyphenyl)benzamide]: 44%; `O=C(Nc1cccc([N+](=O)[O-])c1)c1ccc(Br)c(S(=O)(=O)Nc2ccc(Br)cc2)c1` [I-22, 4-bromo-3-(N-(4-bromophenyl)sulfamoyl)-N-(3-nitrophenyl)benzamide]: 38%; `Cc1cc(C)cc(NC(=O)c2ccc(NS(=O)(=O)c3ccc(F)c(Cl)c3)cc2)c1` [I-931, 4-((3-chloro-4-fluorophenyl)sulfonamido)-N-(3,5-dimethylphenyl)benzamide]: 55%. Next, `Cc1cccc(C(=O)Nc2cccc(NS(=O)(=O)c3ccccc3)c2)c1[N+](=O)[O-]` [I-345, 3-methyl-2-nitro-N-(3-(phenylsulfonamido)phenyl)benzamide]: 53%; `O=C(Nc1cccc([N+](=O)[O-])c1)c1cccc(S(=O)(=O)Nc2ccc(Cl)cc2)c1` [I-21, 3-(N-(4-chlorophenyl)sulfamoyl)-N-(3-nitrophenyl)benzamide]: 45%. For the molecule `COc1ccc([N+](=O)[O-])cc1NC(=O)c1cccc(S(=O)(=O)Nc2ccc(Cl)cc2)c1` [I-41, 3-(N-(4-chlorophenyl)sulfamoyl)-N-(2-methoxy-5-nitrophenyl)benzamide], the “% Inhibition of Apyrase” value was 13%. The figure for `CN(C(=O)c1ccccc1S(=O)(=O)N(C)c1ccccc1)c1ccccc1` [I-815, N-methyl-2-(N-methyl-N-phenylsulfamoyl)-N-phenylbenzamide] is 37%; for `COc1ccccc1NS(=O)(=O)c1cccc(NC(=O)c2ccc(=O)n(Cc3ccccc3)n2)c1` [I-735, 1-benzyl-N-(3-(N-(2-methoxyphenyl)sulfamoyl)phenyl)-6-oxo-1,6-dihydropyridazine-3-carboxamide] it is 53%; for `O=C(Nc1cccc(Cl)c1)c1ccc(NS(=O)(=O)c2ccc(F)c(F)c2)cc1` [I-906, N-(3-chlorophenyl)-4-((3,4-difluorophenyl)sulfonamido)benzamide] it is 61%. Consider `N#Cc1cccc(NC(=O)c2ccc(NS(=O)(=O)c3ccc(F)cc3)cc2)c1` [I-957, N-(3-cyanophenyl)-4-((4-fluorophenyl)sulfonamido)benzamide], for which the “% Inhibition of Apyrase” value came to 20%. Next, `O=C(Nc1nnc(C2CC2)s1)c1cccc(NS(=O)(=O)c2ccccc2)c1` [I-652, N-(5-cyclopropyl-1,3,4-thiadiazol-2-yl)-3-(phenylsulfonamido)benzamide]: 45%; `CCOc1ccc(NS(=O)(=O)c2ccc(C(=O)Nc3cccc(C#N)c3)cc2)cc1` [I-211, N-(3-cyanophenyl)-4-(N-(4-ethoxyphenyl)sulfamoyl)benzamide]: 76%; `Cc1csc(NC(=O)c2cccc(NS(=O)(=O)c3ccc4c(c3)OCCCO4)c2)n1` [I-650, 3-((3,4-dihydro-2H-benzo[b][1,4]dioxepine)-7-sulfonamido)-N-(4-methylthiazol-2-yl)benzamide]: 50%.

On to `CN(c1ccccc1)S(=O)(=O)c1cccc(C(=O)N2CCCc3ccccc32)c1` [I-482, N-methyl-N-phenyl-3-(1,2,3,4-tetrahydroquinoline-1-carbonyl)benzenesulfonamide], for which the “% Inhibition of Apyrase” value is recorded as 58%. Next, `N#Cc1cccc(NC(=O)c2cccc(S(=O)(=O)Nc3cc(C(F)(F)F)ccc3Cl)c2)c1` [I-532, 3-(N-(2-chloro-5-(trifluoromethyl)phenyl)sulfamoyl)-N-(3-cyanophenyl)benzamide]: 55%; `COc1ccc(NS(=O)(=O)c2cccc(C(=O)Nc3ccc(C#N)cc3)c2)cc1` [I-1006, N-(4-cyanophenyl)-3-(N-(4-methoxyphenyl)sulfamoyl)benzamide]: 42%.

As to `CN(c1ccccc1)S(=O)(=O)c1ccccc1C(=O)Nc1ccc(S(=O)(=O)N2CCCC2)cc1` [I-215, 2-(N-methyl-N-phenylsulfamoyl)-N-(4-(pyrrolidin-1-ylsulfonyl)phenyl)benzamide], the “% Inhibition of Apyrase” value amounted to 58%. On to `O=C(Nc1ccccc1OC(F)F)c1ccc(Cl)c(S(=O)(=O)N2CCc3ccccc32)c1` [I-463, 4-chloro-N-(2-(difluoromethoxy)phenyl)-3-(indolin-1-ylsulfonyl)benzamide], for which the “% Inhibition of Apyrase” value is on record as 59%. Consider `O=C(Nc1ccc2c(c1)OCO2)c1cccc(S(=O)(=O)N2CCc3ccccc32)c1` [I-451, N-(benzo[d][1,3]dioxol-5-yl)-3-(indolin-1-ylsulfonyl)benzamide], for which the “% Inhibition of Apyrase” value turned out to be 60%. For `COc1ccccc1NS(=O)(=O)c1ccc(NC(=O)c2cccc([N+](=O)[O-])c2)cc1` [I-993, N-(4-(N-(2-methoxyphenyl)sulfamoyl)phenyl)-3-nitrobenzamide], the “% Inhibition of Apyrase” value was determined as 48%. Regarding `O=C(NC1CCCc2ccccc21)c1cccc(S(=O)(=O)Nc2ccc(Br)cc2)c1` (centres unmarked) [I-244, 3-(N-(4-bromophenyl)sulfamoyl)-N-(1,2,3,4-tetrahydronaphthalen-1-yl)benzamide], the “% Inhibition of Apyrase” value is reported as 68%. As for `O=C(Nc1ccc(S(=O)(=O)Nc2ccc(Cl)cc2)cc1)c1cccc(C(F)(F)F)c1` [I-976, N-(4-(N-(4-chlorophenyl)sulfamoyl)phenyl)-3-(trifluoromethyl)benzamide], the “% Inhibition of Apyrase” value was 60%.

Regarding `CC(C)n1ncc2cc(NC(=O)c3cccc(S(=O)(=O)Nc4ccc5c(c4)OCO5)c3)cnc21` [I-553, 3-(N-(benzo[d][1,3]dioxol-5-yl)sulfamoyl)-N-(1-isopropyl-1H-pyrazolo[3,4-b]pyridin-5-yl)benzamide], the “% Inhibition of Apyrase” value is 52%.

These data come from patent US12685312B2, “Sulfonamide apyrase inhibitors” (Texas Crop Science, Inc., priority 2022, dated 2026).
